From patent US20240174634A1, “Aldehyde Dehydrogenase Inhibitors and Their Therapeutic Use” (priority 2020, published 2024)

These compounds were tested against T1, ALDH1A3 (Homo sapiens, UniProt P47895) (assay: Primary biochemical assay, NAD(P)H-Glo Detection System). Conditions: 30 min pre-incubation, propionaldehyde and NAD at Km.
T1 sequence (P47895 1-512): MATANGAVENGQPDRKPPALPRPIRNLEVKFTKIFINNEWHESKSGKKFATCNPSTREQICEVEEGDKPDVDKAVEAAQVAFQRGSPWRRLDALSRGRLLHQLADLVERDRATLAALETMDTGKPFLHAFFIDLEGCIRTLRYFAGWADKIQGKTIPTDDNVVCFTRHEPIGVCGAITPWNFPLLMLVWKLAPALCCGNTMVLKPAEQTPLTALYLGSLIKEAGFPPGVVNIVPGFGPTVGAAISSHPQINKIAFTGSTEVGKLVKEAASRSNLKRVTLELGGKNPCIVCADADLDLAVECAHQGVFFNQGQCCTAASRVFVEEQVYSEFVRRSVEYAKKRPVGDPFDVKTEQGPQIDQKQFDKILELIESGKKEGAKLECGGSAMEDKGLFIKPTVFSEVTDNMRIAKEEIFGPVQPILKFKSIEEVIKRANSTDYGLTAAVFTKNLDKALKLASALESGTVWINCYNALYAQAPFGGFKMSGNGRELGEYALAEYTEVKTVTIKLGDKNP
Parameters: His-tag; made in house; host or cells: E. coli Rosetta (DE3)
How it was run: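 Recombinant full-length His-tagged human enzymes expressed in E. coli were pre-incubated 30 min at room temperature with compound (10-point, 3-fold series; top 20 μM for ALDH1A3, 250 μM for ALDH1A1/1A2). Propionaldehyde and NAD were then added at Km; NADH was read by NAD(P)H-Glo luminescence. Buffer: Tris (pH 7.6 for 1A1/1A2, 9.0 for 1A3), 1 mM TCEP, 0.01% Tween-20.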

SMILES	IC50 [nM]
O=C1COc2cc(OCCN3CCCC3c3cccc(F)c3)ccc2N1 (stereo not drawn) [ALDHI-2009, 7-[2-[2-(3-fluorophenyl)pyrrolidin-1-yl]ethoxy]-4H-1,4-benzoxazin-3-one]	100 to 1000
O=C1CCc2cc(OCCn3nccc3-c3cccc(F)c3)ccc2N1 [ALDHI-2023, 6-[2-[5-(3-fluorophenyl)pyrazol-1-yl]ethoxy]-3,4-dihydro-1H-quinolin-2-one]	< 100
C[C@@H](c1ccccc1)N(CCO)CCOc1ccc2c(c1)CCC(=O)N2 [ALDHI-3007, 6-[2-[2-hydroxyethyl-[(1S)-1-phenylethyl]amino]ethoxy]-3,4-dihydro-1H-quinolin-2-one]	100 to 1000
O=C1CCc2cc(NC(=O)c3ocnc3-c3cccc(F)c3)ccc2N1 [ALDHI-1019, 4-(3-fluorophenyl)-N-(2-oxo-3,4-dihydro-1H-quinolin-6-yl)oxazole-5-carboxamide]	100 to 1000
O=C1CCc2cc(OCCN3CCCC3c3ccncc3)ccc2N1 (stereo not drawn) [ALDHI-2004, 6-[2-[2-(4-pyridyl)pyrrolidin-1-yl]ethoxy]-3,4-dihydro-1H-quinolin-2-one]	100 to 1000
O=C1CCc2cc(OCCN3CCCC3c3cccnc3)ccc2N1 (stereo not drawn) [ALDHI-2005, 6-[2-[2-(3-pyridyl)pyrrolidin-1-yl]ethoxy]-3,4-dihydro-1H-quinolin-2-one]	< 100
Cc1ccc(C2CCCN2CCOc2ccc3c(c2)CCC(=O)N3)cc1 (stereo not drawn) [ALDHI-2010, 6-[2-[2-(p-tolyl)pyrrolidin-1-yl]ethoxy]-3,4-dihydro-1H-quinolin-2-one]	< 100
Cn1cc(C2CCCN2CCOc2ccc3c(c2)SCC(=O)N3)cn1 (stereo not drawn) [ALDHI-2026, 7-[2-[2-(1-methylpyrazol-4-yl)pyrrolidin-1-yl]ethoxy]-4H-1,4-benzothiazin-3-one]	100 to 1000
O=C1CCc2cc(OCCN3CC(F)(F)CC3c3cccc(F)c3)ccc2N1 (stereo not drawn) [ALDHI-2053, 6-[2-[4,4-difluoro-2-(3-fluorophenyl)pyrrolidin-1-yl]ethoxy]-3,4-dihydro-1H-quinolin-2-one]	< 100
O=C1CSc2cc(OCCN3CCCC3c3ccccn3)ccc2N1 (stereo not drawn) [ALDHI-2027, 7-[2-[2-(2-pyridyl)pyrrolidin-1-yl]ethoxy]-4H-1,4-benzothiazin-3-one]	100 to 1000
O=C1CCc2cc(NC(=O)c3sc(N4CC(O)C4)nc3-c3cccc(F)c3)ccc2N1 [ALDHI-1004, 4-(3-fluorophenyl)-2-(3-hydroxyazetidin-1-yl)-N-(2-oxo-3,4-dihydro-1H-quinolin-6-yl)thiazole-5-carboxamide]	< 100
CC1Oc2cc(OCCN3CCCC3c3cccc(F)c3)ccc2NC1=O (stereo not drawn) [ALDHI-2044, 7-[2-[2-(3-fluorophenyl)pyrrolidin-1-yl]ethoxy]-2-methyl-4H-1,4-benzoxazin-3-one]	< 100
Cc1cccc(-c2ncsc2C(=O)Nc2ccc3c(c2)CCC(=O)N3)c1 [ALDHI-1013, 4-(m-tolyl)-N-(2-oxo-3,4-dihydro-1H-quinolin-6-yl)thiazole-5-carboxamide]	1000 to 10000
O=C1CCc2cc(OCCN(CCO)Cc3cccnc3)ccc2N1 [ALDHI-3005, 6-[2-[2-hydroxyethyl(3-pyridylmethyl)amino]ethoxy]-3,4-dihydro-1H-quinolin-2-one]	< 100
CN(CCOc1ccc2c(c1)CCC(=O)N2)Cc1cccc(F)c1 [ALDHI-3001, 6-[2-[(3-fluorophenyl)methyl-methyl-amino]ethoxy]-3,4-dihydro-1H-quinolin-2-one]	100 to 1000
